Laboratory results published in paper PMC7677311, “Disrupting Plasmodium UIS3–host LC3 interaction with a small molecule causes parasite elimination from host cells” (Communications Biology, 2020).

Target: T1, UIS3 (PfUIS3) (Plasmodium falciparum, UniProt Q8IEU1)
T1 construct: gene PF3D7_1302200; recombinant His-mycUIS3, His tag cleaved; with LC3
Test: ITC, C4 ([…]) titrated into a saturated solution of UIS3 with LC3, one-site model
Format: binding

T1 sequence (Q8IEU1 entry or part of it): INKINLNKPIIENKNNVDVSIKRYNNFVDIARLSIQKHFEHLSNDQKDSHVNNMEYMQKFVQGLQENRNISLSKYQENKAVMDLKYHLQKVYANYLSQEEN

Kd: 241 nM
Compound: N#Cc1ccc(C(=O)N2CCN(Cc3ccc(-c4noc(-c5cccc(C(F)(F)F)c5)n4)cc3)CC2)cc1 [C4, 4-{[4-(4-{5-[3-(trifluoromethyl)phenyl]-1,2,4-oxadiazol-3-yl}benzyl)piperazino]carbonyl}benzonitrile]
